“Also recorded” adds a separate entry of the source.
Assays:
[1] = test system: infarct region in brain (MCAO); assay: PET/SPECT imaging in middle cerebral artery occlusion (MCAO) mouse model of brain stroke; format: in vivo; settings: for Uptake in stroke regions: MCAO mouse model, FIG. 13, PET or SPECT
Description: Fasted mice are anesthetized with 1.5% isoflurane in a stream of O2:N2 mixture (30:70, 1 L/min) and blanketed in a thermostatic blanket at 37° C. […] The common carotid artery is occluded by a micro-clip. The left ECA is ligated, coagulated, and cut distal to the cranial thyroid artery. A 15 mm monofilament nylon suture (6-0, dia of heat-rounded tip=0.2-0.3 mm) is inserted into the ECA and gently advanced through the ICA until its tip has occluded the origin of the MCA. Correct placement of the suture is indicated by a sudden drop of the local cortical blood flow in the left MCA territory to 10-20% of basal flow. CBF is monitored by non-invasive laser Doppler flowmetry (Moor Instruments). A sustained reduction of >80% is indicative of successful MCAO. The monofilament is secured in place with a ligature and the skin incision is closed. The monofilament suture is left in place for permanent MCAO, but for transient MCAO, the occluding suture is removed after 1 h by anesthetizing the mouse and re-opening the wound.
^18F-FGA was found, in the present work, to accumulate in the brain of a mouse model of brain stroke created by middle cerebral artery occlusion (MCAO). To test ^18F-FGA for imaging infarct in brain, we employed a mouse model of permanent MCAO. PET was performed after 2 h of MCAO surgery. Approximately 1 mCi of ^18F-FGA was injected (i.v.) and a 20 min image was acquired after 1 h of injection. […] We also performed 1 day post-MCAO imaging of brain excised after 2 h of ^18F-FGA injection.

[2] = test system: rats; assay: ISO-induced myocardial injury in rats (ECG, cardiac troponin I, corticosterone, TTC staining); format: in vivo, Sprague Dawley rats
Description: (§1) Male Sprague Dawley rats (250-300 g) were purchased from Harlan (Indianapolis, Ind., USA), housed in regular light/dark cycles and allowed to acclimatize for at least 5 days prior to the experiments. Myocardial injury was induced by administering a sterile aqueous solution of ISO at a dose rate of 150 mg/kg bodyweight. The drug was intraperitoneally injected on two consecutive days.
Lead 1 ECG of isoflurane-anesthetized rats was recorded by placing negative electrode on the right front paw, positive electrode on the left front paw, and ground lead on to the left hind paw. The electrodes were secured to the lead (CB Sciences C-ISO-255), bioamplifier (ETH-225), and analog to digital converter (iWorx 118) and the signal was recorded using Labscribe 2.0 software (iWorx, Dover, N.H.). Before analysis of raw data, the signal was filtered to eliminate 60 Hz mains frequency.
Blood samples were collected before euthanasia and plasma was separated by centrifugation (5,000 rpm for 5 min). We determined the levels of cardiac TnI (cTnI) in plasma by using a rat-specific enzyme-linked immunoassay kit obtained from Life Diagnostics (West Chester, Pa.). The plasma samples were diluted 1:2 with PBS before estimation.
We measured the concentration of stress hormone corticosterone in undiluted plasma by using an ELISA kit from Cayman Chemicals (Ann Arbor, Mich.). Corticosterone is the only glucocorticoid present in rats.
After the final session of imaging and blood sample collection, the rats were euthanized and their hearts were immediately collected and frozen at −20° C. for 2 h. The hearts were sectioned into 2 mm slices and placed in 1% solution of TTC in PBS at 37° C. with intermittent shaking. After 30 min of staining, the TTC was removed and replaced with 10% buffered fomialin overnight.

[3] = test system: ISO-induced myocardial injury; assay: PET/SPECT imaging in rat model of ISO-induced myocardial damage; format: in vivo, Sprague Dawley rats; settings: for Delineation of ISO-induced myocardial pathology by imaging: control vs ISO-treated rats
Description: as §1
In addition to the post-injury imaging, baseline images were also acquired before inducing ISO-injury. […] All injections were given intravenously in the tail vein of anesthetized (2% isoflurane-oxygen mixture) rats and imaging was performed at indicated times after the injections. Through the imaging period, anesthesia was maintained with a 2% isoflurane-oxygen mixture. For PET, the rats were positioned supine in a gantry of a PET-CT dual modality machine (Gamma Medica Ideas, Northridge, Calif.). A fly-mode CT of thoracic region was acquired before a 20 min list mode PET data acquisition. SPECT imaging was performed on a NanoSPECT machine (Trifoil Imaging, Chatsworth, Calif.) by helical SPECT acquisition of the thoracic region in 24 frames of 60 seconds each. After imaging, the rats were allowed to wake up and kept in their cage until the time of euthanasia.
The acquired PET images was reconstructed by filtered back projection algorithm and fused with the CT to generate a composite PET-CT image. SPECT acquisitions were reconstructed with HiSPECT reconstruction algorithm provided with the system.
Standard uptake value (SUV) was calculated by defining a three-dimensional region of interest (ROI) around the heart using the CT image. Background was determined by placing a spherical ROI at the same level as the 4th sternebrae in the XY plane in the posterior medial area of the left lung. Mean counts per voxel for the heart were normalized to mean background counts per voxel.

[4] = Circulation kinetics of ^18F-FGA in mice; format: in vivo, CD-1 mice; settings: i.v., elimination phase, 30-180 minute time points
Description: Five male CD-1 mice were injected with 100 μCi of ^18F-FGA intravenously via the tail vein. At 0, 30, 60, 90, 120, and 180 minutes post injection, 25-50 μl of blood was sampled from the retro-orbital sinus. Blood was weighed and counted in an automated gamma counter (Packard Cobra II Auto Gamma, Perkin Elmer, Boston, Mass.). One mouse was excluded from the study based on macroscopic observations about the abnormal kidney morphology upon necropsy.
For statistical comparisons we employed GraphPad Prism 6 Software (GraphPad, La Jolla, Calif.). Two group comparisons were performed using a Student's T Test, comparisons between 3 or more groups were done using one way ANOVA. Pharmacokinetic parameters were calculated from the semi-log plot of time-activity curves using method of residuals.
Circulation kinetics of ^18F-FGA was studied over the course of 3 h. As shown in FIG. 6 (left panel), by 30 min, more than 99% of the injected dose was removed from circulation. […] Pharmacokinetic parameters were calculated from the 30-180 minute time points and are presented in tabular form (FIG. 6, right panel).

[5] = Biodistribution of ^18F-FGA in normal mice; format: in vivo, CD1 mice; settings: for Biodistribution, Blood / Biodistribution, Bone / Biodistribution, Brain / Biodistribution, Heart / Biodistribution, Kidney / Biodistribution, Liver / Biodistribution, Lung / Biodistribution, Muscle / Biodistribution, Spleen: i.v. 0.1 mCi, decay-corrected, mean ± SD
Description: All animal work described herein was performed according to the NIH Animal Use and Care Guidelines and was approved by the institutional IACUC. Nine male and three female CD1 mice (20-36 g) were obtained from Harlan Laboratories (Indianapolis, Ind.), and housed in a controlled environment with 12 h day/night cycle. The mice were allowed to acclimatize for at least 1 week before inclusion in the study. On the day of imaging, the animals were anesthetized with 2-3% isoflurane in oxygen stream. Approximately 100 μCi of ^18F-FGA was injected intravenously in the tail vein. The animals were placed in a cage with absorbent padding until biodistribution. Briefly, the mice were euthanized after 1 or 3 hours post injection by an over-dose of isoflurane (4%) followed by cervical dislocation. Various organs were excised, washed with saline, weighed, and appropriate tissue samples were counted in an automated gamma counter (Packard Cobra II Auto Gamma, Perkin Elmer, Boston, Mass.). Total blood volume, bone, and muscle mass were estimated as 5.7%, 10% and 40% of body weight, respectively. A diluted sample of injected ^18F-FGA served as a standard for comparison.
Results of a whole body distribution analysis of ^18F-FGA in various organs of normal mice 1 and 3 h after injection are shown in Table 1. Normal healthy mice were injected with ^18F-FGA (0.1 mCi) via the tail vein and the mice were euthanized at 1 h and 3 h post injection. […] All other organs accumulated less than 0.5% of the injected dose/g tissue. The concentration of ^18F-FGA in circulation was also negligible.
We injected 0.1 mCi (50 μl) of ^18F-FGA in normal healthy mice (n=8), and collected organs for counting at 1 h post-injection. The accumulation in the brain was less than about 0.1% and in all major organs was below 0.5% of the injected dose and it cleared via renal system. […] Rapid clearance and absence of accumulation in healthy cerebral tissue indicated effectiveness of ^18F-FGA for clear infarct imaging.

[6] = normal healthy mice (n=8), 0.1 mCi, 1 h post-injection
[7] = normal mice, 1 and 3 h after injection

C/C(=N\[O-])[C@@H](C)[N-]CC(C)(C)C[N-][C@H](C)/C(C)=N/O.[O]=[99Tc+3] (racemic) [HMPAO, reference compound]
Uptake in stroke regions [1]: deficient uptake in stroke regions

CC(C)NCC(O)c1ccc(O)c(O)c1 (stereo not shown) [ISO, isoproterenol]
Cardiac troponin in plasma ([2]; ISO-treated rats (n=4), 150 mg/kg i.p. on two consecutive days, plasma 24-48 hours after ISO): 63 pg/mL
Plasma level of corticosterone ([2]; ISO-treated rats (n=6), 150 mg/kg i.p. on two consecutive days): 34.1 ng/mL
Heart histology (Evans blue, TTC staining) ([2]; rats, after two consecutive days of ISO injection): generalized and extensive necrosis
ST duration (ECG) ([2]; rats, over the course of ISO treatment): increased
R-R interval (ECG) ([2]; rats, same day of ISO treatment): significantly decreased

O=C(O)[C@@H](O)[C@@H](O)[C@H](O)[C@@H]([18F])C(=O)O [^18F-FGA, 2-deoxy-2-[^18F]fluoroglucaric acid]
Ipsilateral vs contralateral accumulation in excised brain ([1]; 1 day post-MCAO, brain excised 2 h after injection): higher accumulation in the ipsilateral side than the contralateral side
Uptake in stroke regions [1]: accumulates in stroke regions of ipsilateral cerebral hemisphere
Accumulation in ipsilateral side of brain ([1]; permanent MCAO, PET after 2 h of MCAO, 1 mCi i.v., image 1 h after injection): central area of ^18F-FGA accumulation
Accumulation in cardiac tissue of ISO-treated rats ([3]; PET, 1 h post-injection, after two consecutive days of ISO): accumulated large amounts
Time to accumulation in ISO-treated hearts ([3]; PET, ISO-treated rats): ≤ 1 h
Contrast between accumulation in myocardial tissue and non-target tissues ([3]; PET, ISO-treated rats, 4 h post-injection): very pronounced
Uptake in normal (baseline/control) heart ([3]; PET, rats without ISO treatment): negligible uptake; also recorded: no detectable signal
Delineation of ISO-induced myocardial pathology by imaging [3]: clearly diagnosed ISO-induced cardiomyopathy
Elimination rate constant [4]: 0.83 h⁻¹
Half-life [4]: approximately 35 minutes
Accumulation in all major organs [5, 6]: below 0.5 % of the injected dose
Accumulation in the brain [5, 6]: less than 0.1 % of the injected dose
Accumulation in all other organs (other than renal system) [5, 7]: less than 0.5 % of the injected dose/g tissue
Concentration in circulation [5, 7]: negligible
Fate of the majority of injected radioactivity [5, 7]: excreted via the renal system
Biodistribution, Blood ([5]; normal mice, 1 hour (n = 8)): 0.145 ± 0.095 % ID/g tissue
Biodistribution, Bone ([5]; normal mice, 1 hour (n = 8)): 0.321 ± 0.128 % ID/g tissue
Biodistribution, Brain ([5]; normal mice, 1 hour (n = 8)): 0.039 ± 0.027 % ID/g tissue
Biodistribution, Heart ([5]; normal mice, 1 hour (n = 8)): 0.056 ± 0.027 % ID/g tissue
Biodistribution, Kidney ([5]; normal mice, 1 hour (n = 8)): 4.226 ± 3.281 % ID/g tissue
Biodistribution, Liver ([5]; normal mice, 1 hour (n = 8)): 0.417 ± 0.128 % ID/g tissue
Biodistribution, Lung ([5]; normal mice, 1 hour (n = 8)): 0.192 ± 0.087 % ID/g tissue
Biodistribution, Muscle ([5]; normal mice, 1 hour (n = 8)): 0.049 ± 0.025 % ID/g tissue
Biodistribution, Spleen ([5]; normal mice, 1 hour (n = 8)): 0.074 ± 0.036 % ID/g tissue
Biodistribution, Blood ([5]; normal mice, 3 hour (n = 4)): 0.051 ± 0.025 % ID/g tissue
Biodistribution, Bone ([5]; normal mice, 3 hour (n = 4)): 0.727 ± 0.773 % ID/g tissue
Biodistribution, Brain ([5]; normal mice, 3 hour (n = 4)): 0.014 ± 0.007 % ID/g tissue
Biodistribution, Heart ([5]; normal mice, 3 hour (n = 4)): 0.018 ± 0.01 % ID/g tissue
Biodistribution, Kidney ([5]; normal mice, 3 hour (n = 4)): 0.698 ± 0.378 % ID/g tissue
Biodistribution, Liver ([5]; normal mice, 3 hour (n = 4)): 0.087 ± 0.027 % ID/g tissue
Biodistribution, Lung ([5]; normal mice, 3 hour (n = 4)): 0.104 ± 0.073 % ID/g tissue
Biodistribution, Muscle ([5]; normal mice, 3 hour (n = 4)): 0.03 ± 0.018 % ID/g tissue
Biodistribution, Spleen ([5]; normal mice, 3 hour (n = 4)): 0.033 ± 0.015 % ID/g tissue

[C-]#[N+]CC(C)(C)OC.[C-]#[N+]CC(C)(C)OC.[C-]#[N+]CC(C)(C)OC.[C-]#[N+]CC(C)(C)OC.[C-]#[N+]CC(C)(C)OC.[C-]#[N+]CC(C)(C)OC.[Tc] [^99mTc-Sestamibi, ^99mTc-sesta-methoxyisobutylisonitrile, reference compound]
Delineation of ISO-induced myocardial pathology by imaging [3]: unable to delineate ISO-induced myocardial pathology

Source: US10953113B2, “Imaging agents and methods of use” (The Board of Regents of the University of Oklahoma, priority 2016, dated 2021)
